In patent US12318388B2, “Pyrimidine derivatives for prevention and treatment of gram-negative bacterial infection, contamination and fouling” (UNIVERSITÉ DE LIÈGE, priority 2019, dated 2025):
Values after ≈ are worked out from the molar mass of the structure shown. Values joined by “and” are separate entries in the source; they are usually repeats but may differ in a detail not shown here. Equal entries are not always repeated. “Also recorded” adds a separate entry of the source.

How the values were obtained:
Format in all cases: cell-based
[1] = system: E. coli (ATCC 8739) biofilm; test: Inhibition of E. coli biofilm formation (crystal violet, biofilm mass); details: for E. coli biofilm mass expressed in percentage: replicate values
Experimental: 1.5×10^4 CFU of E. coli (ATCC 8739) in early logarithmic phase were added in a well of a 48-well polystyrene plate containing Luria Bertani (LB) medium supplemented with 5% mannose (purchased from Sigma-aldrich #M6020-25G) and incubated for 48h at 37° C. The incubation was carried in static conditions in presence or absence of different concentrations of the molecules 2329 or 2666 in combination or not with the penetrating agent polymyxin B nonapeptide (PMBN) (35 μg/ml) (provided by Sigma-aldrich #P2076-5MG). After incubation, planktonic bacteria, which are bacteria floating in the liquid medium, were removed and adherent bacteria were washed 2 times in PBS. Crystal Violet (Sigma-aldrich #C0775-25G) (1% solution in dH2O) was then added to the wells for 15 min at RT to stain the biofilm. Wells were washed 3 times with PBS (phosphate buffered saline provided by Lonza #17-516F) to eliminate unbound crystal violet and […] Acetic Acid 20% was added and incubated at RT for 10 min. The absorbance of the solution was measured at 570 nm with an Infinite 200 PRO (Tecan) reflecting the total biomass of the biofilm, which corresponds to the sum of live and dead bacteria. The Biofilm Mass, expressed in percentage, is calculated by the following formula: Abs(sample)/Abs(DMSO 1%)*100, wherein the Abs(sample) or Abs(DMSO) represents the difference between the absorbance of the sample or DMSO and the blank (blank is the medium alone without bacteria).

[2] = system: Pseudomonas aeruginosa (ATCC27853); test: Minimal Inhibitory Concentration (MIC) on Pseudomonas aeruginosa with or without PMBN
Experimental: A single colony grown on an tryptic soy agar plate is resuspended and cultured in tryptic soy broth medium overnight (O/N) in aerobic conditions (37° C. with 220 rpm shaking), next day a 1:100 inoculum in Mueller-Hinton broth (MHB) is incubated in aerobic conditions for 3h (OD=0.5-0.6) and an inoculum of 1:1000 dilution, corresponding to 1-3×10^5 CFU/ml, is incubated in presence or absence of different concentrations of the tested molecules in 1% DMSO (vehicle) with or without PMBN at 0.5 μg/ml. After 28-30h growth the OD of each culture was measured at 600 nm (OD600) in a spectrophotometer (Victor 3-Perkin Elmer). The MIC represents the concentration at which there is no visible growth of bacteria, i.e. ΔOD at 600 nm equal to zero (blank is the medium alone) wherein ΔOD is the difference between the resulting optical density (OD) with the molecule together with PMBN, and the optical density (OD) of the blank (blank is the medium) alone.

[3] = system: Escherichia coli (ATCC 8739); test: Minimal Inhibitory Concentration (MIC) on Escherichia coli with or without PMBN, OD600 after O/N growth; details: for MIC: molecule alone
Experimental: The Minimal Inhibitory Concentration (MIC) of molecules 2329, 2412, 2452 and 2461 together with polymyxin B nonapeptide (PMBN) was determined on Escherichia coli (ATCC 8739) according to EUCAST (European Committee on Antimicrobial Susceptibility Testing) recommendations.
(§1) Briefly, a single colony grown on a Luria-Bertani Agar (LB) plate was resuspended and cultured in the LB medium overnight (O/N) in aerobic conditions (37° C. with 220 rpm shaking), next day a 1:50 inoculum in Mueller-Hinton broth (MHB) was incubated in aerobic conditions for 1h30 (OD=0.08-0.1) and an inoculum of 1:300 dilution, corresponding to 3×10^6 CFU/ml, was incubated in presence or absence of different concentrations of the molecules in 1% DMSO (vehicle) with or without Polymyxin B nonapeptide (PMBN) at 40 μg/ml. After O/N growth the OD of each culture was measured at 600 nm in a spectrophotometer (OD600). The MIC represents the concentration at which there is no visible growth of bacteria, i.e. ΔOD at 600 nm equal to zero wherein ΔOD is the difference between the resulting optical density (OD) with the molecule together with PMBN, and the optical density (OD) of the blank (blank is the medium) alone.
(§2) A single colony grown on an Lurian-Bertani (LB) agar plate is resuspended and cultured in LB medium overnight (O/N) in aerobic conditions (37° C. with 220 rpm shaking), next day a 1:50 inoculum in Mueller-Hinton broth (MHB) is incubated in aerobic conditions for 1h30 (OD=0.08-0.1) and an inoculum of 1:300 dilution, corresponding to 3×10^6 CFU/ml, is incubated in presence or absence of different concentrations of the tested molecules in 1% DMSO (vehicle) with or without PMBN at 40 μg/ml. After O/N growth the OD of each culture was measured at 600 nm (OD600) in a spectrophotometer (Victor 3-Perkin Elmer). The MIC represents the concentration at which there is no visible growth of bacteria, i.e. ΔOD at 600 nm equal to zero wherein ΔOD is the difference between the resulting optical density (OD) with the molecule together with PMBN, and the optical density (OD) of the blank (blank is the medium) alone.
as §1, with “cultured in LB medium” for “cultured in the LB medium”, “of the above-mentioned molecules in” for “of the molecules in”
as §2, with “a Luria-Bertani” for “an Lurian-Bertani”, “above-mentioned pyrazolopyrimidine molecule” for “tested molecules”, “alone. […]” for “alone.”

Row | Molecule | Effect on E. coli biofilm formation (FIG. 2) ([1]; 5 μM combined with 35 μg/ml PMBN) | E. coli biofilm mass expressed in percentage ([1]; 2329 20 μM without PMBN) | E. coli biofilm mass expressed in percentage ([1]; P + 2329 5 μM (PMBN 35 μg/ml)) | E. coli biofilm mass expressed in percentage ([1]; P + 2329 10 μM (PMBN 35 μg/ml)) | Effect on E. coli biofilm growth (FIG. 2) ([1]; molecule alone, without PMBN) | Minimal inhibitory concentration without PMBN ([2]; Pseudomonas aeruginosa (ATCC 27853), molecule alone) [µM] | Minimal inhibitory concentration With PMBN ([2]; Pseudomonas aeruginosa (ATCC 27853), together with PMBN at 0.5 μg/ml) [µM] | OD600 nm after O/N growth of Escherichia coli (FIG. 4) ([3]; 10 μM with 40 μg/ml PMBN) | MIC ([3]; E. coli (ATCC 8739)) [µM] | Minimal inhibitory concentration With PMBN ([3]; E. coli (ATCC 8739), together with PMBN at 40 μg/ml) [µM] | MIC ([3]; Escherichia coli, ATCC8739, E. coli (ATCC 8739)) [µM] | Activity against Escherichia coli (ATCC 8739), conclusion ([3]; with 40 μg/ml PMBN) | Effect on E. coli biofilm growth (FIG. 2) ([1]; PMBN 35 μg/ml alone) | E. coli biofilm mass expressed in percentage ([1]; PMBN 35 μg/ml alone) | Inhibition of Pseudomonas aeruginosa growth by PMBN alone ([2]; 0.5 μg/ml PMBN alone) | Inhibition of E. coli growth by PMBN alone ([3]; 40 μg/ml PMBN alone)
1 | CCCSc1nc(N[C@@H]2C[C@H]2c2ccc(F)c(F)c2)c2ncn(C)c2n1 [molecule 2329, N-((1R,2S)-2-(3,4-difluorophenyl)cyclopropyl)-9-methyl-2-(propylthio)-9H-purin-6-amine] | fully inhibited | 110.45 percentage and 124.24 percentage and 97.41 percentage and 107.12 percentage | 12.79 percentage and 11.45 percentage and −1.25 percentage and −1.59 percentage | 0.12 percentage and −1.01 percentage and 2.96 percentage and 3.11 percentage | no effect | >100 | 50 (≈ 18.8 µg/mL) | killed all bacteria | >100 | 10 (≈ 3.75 µg/mL) | > 100 | bactericidal activity |  |  |  | 
2 | Polymyxin B nonapeptide [PMBN, reference compound] |  |  |  |  |  |  |  |  |  |  |  |  | reduced by half | 47.94 percentage and 48.98 percentage and 53.90 percentage and 50.87 percentage | did not inhibit | unable to inhibit; also recorded: did not inhibit
